Measurements published in patent US8183262B2, “Pyridine derivatives as mGluR2 antagonists” (Hoffmann-La Roche Inc., priority 2007, dated 2012).

Assays:
rat mGlu2 receptor = target: T1, rat mGlu2 receptor (Rattus norvegicus, UniProt P31421); test: [3H]-LY354740 binding on mGlu2 transfected CHO cell membranes; conditions: inhibition of 10 nM [3H]-LY354740 binding, membranes of CHO cells transfected with rat mGlu2, room temperature, 1 hour
T1 construct: expressed in transfected cells; membranes prepared
T1 sequence (P31421 19-872): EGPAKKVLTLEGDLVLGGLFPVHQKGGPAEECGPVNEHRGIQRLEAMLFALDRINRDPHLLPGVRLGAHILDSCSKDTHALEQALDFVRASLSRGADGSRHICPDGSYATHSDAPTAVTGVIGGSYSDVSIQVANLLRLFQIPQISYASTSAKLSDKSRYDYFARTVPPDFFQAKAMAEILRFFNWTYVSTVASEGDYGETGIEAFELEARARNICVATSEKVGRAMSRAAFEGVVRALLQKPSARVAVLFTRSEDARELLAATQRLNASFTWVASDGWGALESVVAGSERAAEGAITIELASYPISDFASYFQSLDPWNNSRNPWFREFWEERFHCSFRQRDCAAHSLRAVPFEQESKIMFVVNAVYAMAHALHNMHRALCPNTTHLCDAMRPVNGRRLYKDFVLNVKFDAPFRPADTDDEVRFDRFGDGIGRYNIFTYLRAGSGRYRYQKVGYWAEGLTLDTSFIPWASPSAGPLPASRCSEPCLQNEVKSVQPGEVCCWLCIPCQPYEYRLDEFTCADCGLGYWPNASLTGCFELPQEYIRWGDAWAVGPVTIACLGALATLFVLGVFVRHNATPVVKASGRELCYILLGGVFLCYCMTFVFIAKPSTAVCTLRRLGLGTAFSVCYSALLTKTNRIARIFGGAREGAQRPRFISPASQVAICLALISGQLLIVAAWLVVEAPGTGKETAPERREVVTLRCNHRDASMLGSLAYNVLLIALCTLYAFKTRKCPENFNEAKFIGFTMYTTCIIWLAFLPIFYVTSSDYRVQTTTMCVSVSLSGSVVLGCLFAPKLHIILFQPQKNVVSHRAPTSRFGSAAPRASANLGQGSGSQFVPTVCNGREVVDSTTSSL
From the text: [^3H]-LY354740 Binding on mGlu2 Transfected CHO Cell Membranes. Transfection and Cell Culture
cDNA encoding the rat mGlu2 receptor protein in pBluescript II was subcloned into the eukaryotic expression vector pcDNA I-amp from Invitrogen Ltd (Paisley, UK). This vector construct (pcD1mGR2) was co-transfected with a psvNeo plasmid encoding the gene for neomycin resistance, into CHO cells by a modified calcium phosphate method described by Chen & Okayama (1988). The cells were maintained in Dulbecco's Modified Eagle medium with reduced L-glutamine (1 mM final concentration), 36 mg/L L-Proline and 10% dialysed foetal calf serum from Gibco-Invitrogen; the medium was supplemented with 500 microM α-methyl-4-carboxyphenylglycine (MCPG). Selection was made in the presence of G-418 (300 ug/ml final concentration). Clones were identified by reverse transcription of 5 μg total RNA, followed by PCR using mGlu2 receptor specific primers 5′-[…]-3′ and 5′-[…]-3′ in 60 mM Tris HCl (pH 10), 15 mM (NH4)2SO4, 2 mM MgCl2, 25 units/ml Taq Polymerase with 30 cycles annealing at 60° C. for 1 min., extention at 72° C. for 30 s, and 1 min. 95° C. denaturation.
Cells, cultured as above, were harvested and washed three times with cold PBS and frozen at −80° C. The pellet was resuspended in cold 20 mM HEPES-NaOH buffer containing 10 mM EDTA (pH 7.4), and homogenised with a polytron (Kinematica, A G, Littau, Switzerland) for 10 s at 10 000 rpm. After centrifugation for 30 min. at 4° C., the pellet was washed once with cold 20 mM HEPES-NaOH buffer containing 0.1 mM EDTA, (pH 7.4). After a second centrifugation for 30 min. at 4° C. the pellet was resuspended in cold 20 mM HEPES-NaOH buffer containing 0.1 mM EDTA, (pH 7.4). Protein content was measured using the Micro BCA method from Pierce-Perbio (Rockford, Ill., USA) using bovine serum albumin as standard.
After thawing, the membranes were resuspended in cold 50 mM Tris-HCl buffer containing 2 mM MgCl2 (pH 7.4) (binding buffer). The final concentration of the membranes in the assays was 25 μg protein/ml. Inhibition experiments were performed with membranes incubated with 10 nM [^3H]-LY354740 at room temperature, for 1 hour, in presence of various concentrations of the compound to be tested. Following the incubations, membranes were filtered onto Whatmann GF/B glass fiber filters or onto GF/B Unifilter plates and washed 5 times with cold binding buffer. Non specific binding was measured in the presence of 10 μM (2S,2′R,3′R)-2-(2′3′-Dicarboxycyclopropyl)glycine (DCG IV from Tocris, Ellisville, Mo. USA). After transfer of the filters into plastic vials containing 10 ml of Ultima-gold scintillation fluid from Perkin-Elmer (Boston, Mass., USA), the radioactivity was measured by liquid scintillation in a Tri-Carb 2500 TR counter (Packard, Zürich, Switzerland). For 96-Unifilter plates the radioactivity was measured after addition of Microscint 40 scintillation fluid (Perkin Elmer, Boston Mass.) using a TopCount NXT (Packard)
The inhibition curves were fitted with a four parameter logistic equation giving IC50 values, and Hill coefficients.

| Compound | Ki (rat mGlu2 receptor) [nM] | melting point |
| --- | --- | --- |
| CCOc1cc(-c2cc(C(F)(F)F)nc(-c3nc(-c4ccc(N)nc4)no3)n2)ccc1C(F)(F)F [Example 90, 5-{5-[4-(3-Ethoxy-4-trifluoromethyl-phenyl)-6-trifluoromethyl-pyrimidin-2-yl]-[1,2,4]oxadiazol-3-yl}-pyridin-2-ylamine] | 55 | 216 °C |
| OCc1ccc(-c2cccc(-c3nc(-c4ccc(C(F)(F)F)cc4)cc(C(F)(F)F)n3)c2)cc1 [Example 114, {3′-[4-Trifluoromethyl-6-(4-trifluoromethyl-phenyl)-pyrimidin-2-yl]-biphenyl-4-yl}-methanol] | 6 | 171 °C |
| Nc1ncc(-c2cccc(-c3nc(-c4ccc(C(F)(F)F)c(OCC(F)(F)F)c4)cc(C(F)(F)F)n3)c2)cn1 [Example 138, 5-(3-{4-[3-(2,2,2-Trifluoro-ethoxy)-4-trifluoromethyl-phenyl]-6-trifluoromethyl-pyrimidin-2-yl}-phenyl)-pyrimidin-2-ylamine] | 28 | 250 °C |
| FC(F)(F)c1ccc(-c2cc(C(F)(F)F)nc(-n3cnc(-c4ccncc4)n3)n2)cc1 [Example 148, 2-(3-Pyridin-4-yl-[1,2,4]triazol-1-yl)-4-trifluoromethyl-6-(4-trifluoromethyl-phenyl)-pyrimidine] | 49 | 248 °C |
| CC(C)(C)NS(=O)(=O)c1cccc(-c2cccc(-c3nc(-c4ccc(C(F)(F)F)cc4)cc(C(F)(F)F)n3)c2)c1 [Example 155, 3′-[4-Trifluoromethyl-6-(4-trifluoromethyl-phenyl)-pyrimidin-2-yl]-biphenyl-3-sulfonic acid tert-butylamide] | 8.4 | 200 °C |
| Nc1ncc(-c2cn(-c3nc(-c4cccc(Cl)c4)cc(C(F)(F)F)n3)cn2)cn1 [Example 187, 5-{1-[4-(3-Chloro-phenyl)-6-trifluoromethyl-pyrimidin-2-yl]-1H-imidazol-4-yl}-pyrimidin-2-ylamine] | 13.7 | 281 °C |
| Cc1cc(-c2ccc(Cl)cc2)nc(-n2cnc(-c3cccc(S(C)(=O)=O)c3)c2)n1 [Example 210, 4-(4-Chloro-phenyl)-2-[4-(3-methanesulfonyl-phenyl)-imidazol-1-yl]-6-methyl-pyrimidine] | 23 | 233 °C |
| CS(=O)(=O)c1cccc(-c2cc(-c3nc(-c4ccc(C(F)(F)F)cc4)cc(C(F)(F)F)n3)ccn2)c1 [Example 218, 2-[2-(3-Methanesulfonyl-phenyl)-pyridin-4-yl]-4-trifluoromethyl-6-(4-trifluoromethyl-phenyl)-pyrimidine] | 3 | 238.5 °C |
| NS(=O)(=O)Nc1cccc(-c2cccc(-c3nc(-c4ccc(C(F)(F)F)cc4)cc(C(F)(F)F)n3)c2)c1 [Example 221, N-{3′-[4-Trifluoromethyl-6-(4-trifluoromethyl-phenyl)-pyrimidin-2-yl]-biphenyl-3-yl}-sulfamide] | 7 | 174 °C |
| CN(C)S(=O)(=O)Nc1cccc(-c2cccc(-c3nc(-c4ccc(C(F)(F)F)cc4)cc(C(F)(F)F)n3)c2)c1 [Example 222, N-{3′-[4-Trifluoromethyl-6-(4-trifluoromethyl-phenyl)-pyrimidin-2-yl]-biphenyl-3-yl}-N′,N′-dimethyl-sulfamide] | 12.4 | 113 °C |
| CS(=O)(=O)Nc1cccc(-c2cccc(-c3nc(-c4ccc(C(F)(F)F)cc4)cc(C(F)(F)F)n3)c2)c1 [Example 223, N-{3′-[4-Trifluoromethyl-6-(4-trifluoromethyl-phenyl)-pyrimidin-2-yl]-biphenyl-3-yl}-methanesulfonamide] | 13 | 191 °C |
| Cc1cn(-c2cccc(-c3cc(-c4ccc(C(F)(F)F)cc4)cc(C)n3)c2)cn1 [Example 227, 2-Methyl-6-[3-(4-methyl-imidazol-1-yl)-phenyl]-4-(4-trifluoromethyl-phenyl)-pyridine] | 34 | 126 to 132 °C |

Further lines, results first:

| Ki (rat mGlu2 receptor) [nM] | melting point | Compound |
| --- | --- | --- |
| 4 | 277 °C | Cc1cc(-c2ccc(C(F)(F)F)cc2)cc(-c2nc(-c3cccc(S(N)(=O)=O)c3)no2)n1 [Example 237, 3-{5-[6-Methyl-4-(4-trifluoromethyl-phenyl)-pyridin-2-yl]-[1,2,4]oxadiazol-3-yl}-benzenesulfonamide] |
| 42 | 140 °C | Cc1cc(-c2ccc(C(F)(F)F)cc2)cc(-c2cccc(C#N)c2)n1 [Example 242, 3-[6-Methyl-4-(4-trifluoromethyl-phenyl)-pyridin-2-yl]-benzonitrile] |
| 3 | 211 °C | NS(=O)(=O)c1cccc(-c2noc(-c3cc(C(F)(F)F)cc(-c4ccc(C(F)(F)F)cc4)n3)n2)c1 [Example 243, 3-{5-[4-Trifluoromethyl-6-(4-trifluoromethyl-phenyl)-pyridin-2-yl]-[1,2,4]oxadiazol-3-yl}-benzenesulfonamide] |
| 5 | 187 °C | NS(=O)(=O)c1cccc(-c2cccc(-c3cc(-c4ccc(C(F)(F)F)cc4)cc(C(F)(F)F)n3)c2)c1 [Example 244, 3′-[6-Trifluoromethyl-4-(4-trifluoromethyl-phenyl)-pyridin-2-yl]-biphenyl-3-sulfonic acid amide] |
| 41 | 227 °C | Cc1cc(-c2ccc(Cl)c(Cl)c2)cc(-n2ccnc2)n1 [Example 247, 4-(3,4-Dichloro-phenyl)-2-imidazol-1-yl-6-methyl-pyridine] |
| 9 | 99 °C (dec.) | Cc1cc(-c2ccc(Cl)c(Cl)c2)cc(-c2cccc(-c3ccc(N)nc3)c2)n1 [Example 249, 5-{3-[4-(3,4-Dichloro-phenyl)-6-methyl-pyridin-2-yl]-phenyl}-pyridin-2-ylamine] |
| 6 | 227 °C | Cc1cc(-c2ccc(C(F)(F)F)cc2)cc(-c2cccc(-c3cc(S(N)(=O)=O)c(F)cc3F)c2)n1 [Example 270, 4,6-Difluoro-3′-[6-methyl-4-(4-trifluoromethyl-phenyl)-pyridin-2-yl]-biphenyl-3-sulfonic acid amide] |
| 3 | 215 °C | Cc1cc(-c2ccc(C(F)(F)F)cc2)cc(-c2cccc(-c3ccc(S(N)(=O)=O)s3)c2)n1 [Example 271, 5-{3-[6-Methyl-4-(4-trifluoromethyl-phenyl)-pyridin-2-yl]-phenyl}-thiophene-2-sulfonic acid amide] |
| 80 | 156 °C | Cc1cc(-c2ccc(C(F)(F)F)cc2)nc(-c2cccc(-c3ccc(S(=O)(=O)NC(C)(C)C)s3)c2)c1 [Example 272, 5-{3-[4-Methyl-6-(4-trifluoromethyl-phenyl)-pyridin-2-yl]-phenyl}-thiophene-2-sulfonic acid tert-butylamide] |
| 4 | 200 °C | Cc1cc(-c2ccc(C(F)(F)F)cc2)nc(-c2cccc(-c3cccc(S(N)(=O)=O)c3)c2)c1 [Example 274, 3′-[4-Methyl-6-(4-trifluoromethyl-phenyl)-pyridin-2-yl]-biphenyl-3-sulfonic acid amide] |
| 87 | 217 °C | Cc1cc(-c2ccc(C(F)(F)F)cc2)nc(-c2cccc(-c3cncc(S(N)(=O)=O)c3)c2)c1 [Example 275, 5-{3-[4-Methyl-6-(4-trifluoromethyl-phenyl)-pyridin-2-yl]-phenyl}-pyridine-3-sulfonic acid amide] |
| 28 | > 250 °C | Cc1nc(-c2cn(-c3cc(C(F)(F)F)cc(-c4ccc(C(F)(F)F)cc4)n3)cn2)sc1S(=O)(=O)NC(C)(C)C [Example 292, 4-Methyl-2-{1-[4-trifluoromethyl-6-(4-trifluoromethyl-phenyl)-pyridin-2-yl]-1H-imidazol-4-yl}-thiazole-5-sulfonic acid tert-butylamide] |
